One test relates to HFLS-OA cells. Briefly: Suppressive action to TNF-α-induced proliferation of synovial cells (HFLS-OA), BrdU ELISA. Particulars: 200 μmol/L test substance, human recombinant TNF-α 10 ng/mL, 5 days, BrdU incorporation increase by TNF-α = 100%; for activity at 200 µM: Synovial cell, 120 h, read-out: Synovial Cell Proliferation Rate (%). It is filed as cell-based. As to the method: Evaluation of Suppressive Action to Cell Proliferation of Synovial Cells (HFLS-OA) Derived from Tissues of Human Osteoarthritis
(1) Incubation of HFLS-OA Cells
HFLS-OA cells were sown onto a 96-well plate so as to make them 10^4 cells/well/100 μL in a D-MEM containing 2 vol % of fetal bovine serum (FBS) and incubated for 24 hours. A test substance (200 μmol/L) and human recombinant TNF-α (10 ng/mL) were added thereto followed by incubating for 5 days.
(2) Measurement of Action to HFLS-OA Cell Proliferation
A kit [Cell Proliferation ELISA, BrdU (colorimetric) (Roche Diagnostics)] was used and measurement was conducted according to the protocol attached to the kit. HFLS-OA cells were incubated for 3 days and 10 μL of 5-bromo-2′-deoxyuridine (BrdU) dissolved in a phosphate buffered saline (PBS) (100 μmol/L, pH 7.4) was added to each well followed by incubating for 48 hours more. After the culture supernatant was removed from each well, 200 μL/well of an immobilization/denaturation solution was added thereto and the mixture was allowed to stand for 30 minutes whereby immobilization of the cells and denaturation of DNA were conducted. After the immobilization/denaturation solution was completely removed, 100 μL of a peroxidase-labeled anti-BrdU antibody solution was added thereto and the mixture was made to react at room temperature for 90 minutes. After washing with PBS, 100 μL of a substrate liquid (tetramethylbenzidine) was added to each well and the absorbance was measured. A cell proliferation rate upon addition of each test substance was calculated where an increase in incorporation of BrdU upon addition of TNF-α was defined as 100% of cell proliferation rate.
(In general: Incorporation of labelled thymidine or its analogues reports DNA synthesis.)

The subject of test [1] is cartilage pieces of bovine metacarpophalangeal joint. Briefly: Suppressive action to cartilage destruction: release of sGAG induced by IL-1α from cartilage pieces. It counts as cell-based. Particulars: 25 μmol/L test substance, 2 h pretreatment, human recombinant IL-1α 3 ng/mL, 4 days at 37° C.; for inhibition at 25 µM: Bos taurus, 96 h, read-out: sGAG Releasing Suppressive Rate (%). As to the method:
Evaluation of Suppressive Action to Cartilage Destruction [Release of sGAG Induced by Interleukin-1α (IL-1α)]
(1) Incubation of Cartilage Pieces
Each four cartilage pieces of bovine metacarpophalangeal joint were placed in each well of a 48-well plate and pretreated for 2 hours with a basal medium [D-MEM (Dulbecco's Modified Eagle Medium) containing 2 mmol/L of glutamine, 25 mmol/L of Hepes, 100 μg/mL of streptomycin, 100 IU/mL of penicillin and 5.6 μg/mL of amphotericin B] containing 25 μmol/L of a test substance. Human recombinant IL-1α (3 ng/mL) was added thereto followed by incubating at 37° C. for 4 days in a CO2 incubator set at 5 vol % of CO2. Culture supernatant and cartilage pieces were recovered and stored by freezing until the measurement for each of them.
(2) Measurement of the Amount of sGAG and Calculation of the Suppressive Rate for the Release of sGAG
The recovered cartilage pieces were treated with a papain solution [containing 1 mg/mL of papain, 100 mmol/L of sodium phosphate (pH 6.5), 5 mmol/L of L-cysteine and 5 mmol/L of disodium ethylenediaminetetraacetate (EDTA)] at 65° C. for about 16 hours to solubilize. Amount of sGAG in the resulting extract was measured using an sGAG Alcian Blue Binding Kit (Wieslab AB) which is a quantitative kit to which a Alcian blue staining protocol is applied. sGAG in the culture supernatant after the incubation was measured without subjecting to a papain treatment. Each releasing rate of sGAG was determined by the following formula to calculate the suppressive rate for the release of sGAG. Releasing rate (%) of sGAG={(Total sGAG amount in the culture supernatant)/[(Total sGAG amount in the culture supernatant)+(Total sGAG amount in the cartilage pieces)]}×100 Suppressive rate (%) for release of sGAG={[Releasing rate of sGAG (IL-1α stimulation)−Releasing rate of sGAG (Test substance)]/[Releasing rate of sGAG (IL-1α stimulation)−Releasing rate of sGAG (Non-stimulation)]}×100

In the case of `O=c1oc2c(OS(=O)(=O)c3cccc([N+](=O)[O-])c3)cccc2cc1NS(=O)(=O)c1cccc(C(F)(F)F)c1` [Compound 50, 2-Oxo-3-[[3-(trifluoromethyl)phenyl]sulfonylamino]-chromen-8-yl 3-nitrobenzenesulfonate], in the test on HFLS-OA cells, the activity at 200 µM is -46.4%. In test [1], the inhibition at 25 µM was 163%.
Take `O=c1oc2c(OS(=O)(=O)c3cccc(C(F)(F)F)c3)cccc2cc1NS(=O)(=O)c1cccc([N+](=O)[O-])c1` [Compound 51]: in the test with HFLS-OA cells, the “Synovial Cell Proliferation Rate (%)” value is listed as −36.5%. For the same compound, in test [1], the “sGAG Releasing Suppressive Rate (%)” value came out at 141%.
Turning to `O=c1oc2c(OS(=O)(=O)c3cccc(C(F)(F)F)c3)cccc2cc1NS(=O)(=O)c1ccc(-c2ccccc2)cc1` [Compound 52, 2-Oxo-3-[(4-phenylphenyl)sulfonylamino]chromen-8-yl 3-(trifluoromethyl)benzenesulfonate], in the test on HFLS-OA cells, the activity at 200 µM was -35.5%. Besides, the inhibition at 25 µM in test [1] was 126%.
On the same counts, the results for `O=c1oc2c(OS(=O)(=O)c3cccc(Br)c3)cccc2cc1NS(=O)(=O)c1ccc(-c2ccccc2)cc1` [Compound 53, 2-Oxo-3-[(4-phenylphenyl)sulfonylamino]chromen-8-yl 3-bromobenzenesulfonate] are -32.3% and 131%.
On the same counts, the results for `O=c1oc2c(OS(=O)(=O)c3cccc([N+](=O)[O-])c3)cccc2cc1NS(=O)(=O)c1cccc(Br)c1` [Compound 54, 3-[(3-Bromophenyl)sulfonylamino]-2-oxochromen-8-yl 3-nitrobenzenesulfonate] are -44.4% and 136%.
For `O=c1oc2c(OS(=O)(=O)c3cccc([N+](=O)[O-])c3)cccc2cc1NS(=O)(=O)c1ccc(-c2ccccc2)cc1` [Compound 55, 2-Oxo-3-[(4-phenylphenyl)sulfonylamino]chromen-8-yl 3-nitrobenzenesulfonate] the same measures were -32.2% and 117%.
Consider `O=c1oc2c(OS(=O)(=O)c3cccc(C(F)(F)F)c3)cccc2cc1NS(=O)(=O)c1cccc(Br)c1` [Compound 56, 3-[(3-Bromophenyl)sulfonylamino]-2-oxochromen-8-yl 3-(trifluoromethyl)benzenesulfonate], for which the activity at 200 µM with HFLS-OA cells was -44.4%. The inhibition at 25 µM in test [1] came to 133%.
On the same counts, the results for `O=c1oc2c(OS(=O)(=O)c3ccc(C(F)(F)F)cc3)cccc2cc1NS(=O)(=O)c1cccc(C(F)(F)F)c1` [Compound 57, 2-Oxo-3-[[3-(trifluoromethyl)phenyl]sulfonylamino]-chromen-8-yl 4-(trifluoromethyl)benzenesulfonate] are -50% and 140%.
For `O=c1oc2c(OS(=O)(=O)c3ccc(C(F)(F)F)cc3)cccc2cc1NS(=O)(=O)c1cccc(Br)c1` [Compound 58, 3-[(3-Bromophenyl)sulfonylamino]-2-oxochromen-8-yl 4-(trifluoromethyl)benzenesulfonate] the same measures were -42.8% and 129%.
On the same counts, the results for `O=c1oc2c(OS(=O)(=O)c3cccc(Br)c3)cccc2cc1NS(=O)(=O)c1cccc([N+](=O)[O-])c1` [Compound 59, 3-[(3-Nitrophenyl)sulfonylamino]-2-oxochromen-8-yl 3-bromobenzenesulfonate] are -32.8% and 123%.
In the case of `O=c1oc2c(OS(=O)(=O)c3cccc(Br)c3)cccc2cc1NS(=O)(=O)c1cccc(C(F)(F)F)c1` [Compound 60, 2-Oxo-3-[[3-(trifluoromethyl)phenyl]sulfonylamino]-chromen-8-yl 3-bromobenzenesulfonate], the activity at 200 µM in the test with HFLS-OA cells was -44.4%. Further, the inhibition at 25 µM in test [1] stood at 138%.
Take `O=c1oc2c(OS(=O)(=O)c3cccc(Br)c3)cccc2cc1NS(=O)(=O)c1ccc(C(F)(F)F)cc1` [Compound 61, 2-Oxo-3-[[4-(trifluoromethyl)phenyl]sulfonylamino]-chromen-8-yl 3-bromobenzenesulfonate]: the activity at 200 µM in the test with HFLS-OA cells was -40.6%. The inhibition at 25 µM in test [1] turned out to be 140%.
For the compound `O=c1oc2c(OS(=O)(=O)c3ccc(-c4ccccc4)cc3)cccc2cc1NS(=O)(=O)c1cccc([N+](=O)[O-])c1` [Compound 62, 3-[(3-Nitrophenyl)sulfonylamino]-2-oxochromen-8-yl 4-phenylbenzenesulfonate], in the test on HFLS-OA cells, the activity at 200 µM is -49.2%. Moreover, in test [1], the inhibition at 25 µM is 140%.
Turning to `O=c1oc2c(OS(=O)(=O)c3ccc(-c4ccccc4)cc3)cccc2cc1NS(=O)(=O)c1cccc(C(F)(F)F)c1` [Compound 63, 2-Oxo-3-[[3-(trifluoromethyl)phenyl]sulfonylamino]-chromen-8-yl 4-phenylbenzenesulfonate], the activity at 200 µM in the test with HFLS-OA cells was -47.9%. Also, the inhibition at 25 µM in test [1] was found to be 137%.
For `O=c1oc2c(OS(=O)(=O)c3ccc(-c4ccccc4)cc3)cccc2cc1NS(=O)(=O)c1ccc(C(F)(F)F)cc1` [Compound 64, 2-Oxo-3-[[4-(trifluoromethyl)phenyl]sulfonylamino]-chromen-8-yl 4-phenylbenzenesulfonate] the same measures were -45.9% and 136%.
On to `O=c1oc2c(OS(=O)(=O)c3ccc(-c4ccccc4)cc3)cccc2cc1NS(=O)(=O)c1cccc(Br)c1` [Compound 65, 3-[(3-Bromophenyl)sulfonylamino]-2-oxochromen-8-yl 4-phenylbenzenesulfonate], for which the activity at 200 µM in the test on HFLS-OA cells was -45.9%. Moreover, the inhibition at 25 µM in test [1] is 115%.
On the same counts, the results for `O=c1oc2c(OS(=O)(=O)c3ccc(-c4ccccc4)cc3)cccc2cc1NS(=O)(=O)c1ccc(-c2ccccc2)cc1` [Compound 66, 2-Oxo-3-[(4-phenylphenyl]sulfonylamino]chromen-8-yl 4-phenylbenzenesulfonate] are -37.9% and 38%.
In the case of `O=c1oc2c(OS(=O)(=O)c3cccc([N+](=O)[O-])c3)cccc2cc1NS(=O)(=O)c1ccc(C(F)(F)F)cc1` [Compound 67, 2-Oxo-3-[[4-(trifluoromethyl)phenyl]sulfonylamino]-chromen-8-yl 3-nitrobenzenesulfonate], the activity at 200 µM in the test with HFLS-OA cells is -38.9%. In addition, the inhibition at 25 µM in test [1] came to 115%.
For `O=c1oc2c(OS(=O)(=O)c3cccc(C(F)(F)F)c3)cccc2cc1NS(=O)(=O)c1ccc(C(F)(F)F)cc1` [Compound 68, 2-Oxo-3-[[4-(trifluoromethyl)phenyl]sulfonylamino]-chromen-8-yl 3-(trifluoromethyl)benzenesulfonate] the same measures were -42.8% and 124%.
On the same counts, the results for `O=c1oc2c(OS(=O)(=O)c3ccc(C(F)(F)F)cc3)cccc2cc1NS(=O)(=O)c1cccc([N+](=O)[O-])c1` [Compound 69, 3-[(3-Nitrophenyl)sulfonylamino]-2-oxochromen-8-yl 4-(trifluoromethyl)benzenesulfonate] are -40.6% and 126%.
With `O=c1oc2c(OS(=O)(=O)c3ccc(C(F)(F)F)cc3)cccc2cc1NS(=O)(=O)c1ccc(-c2ccccc2)cc1` [Compound 70, 2-Oxo-3-[(4-phenylphenyl)sulfonylamino]chromen-8-yl 4-(trifluoromethyl)benzenesulfonate], the activity at 200 µM in the test with HFLS-OA cells was -39%. The inhibition at 25 µM in test [1] stood at 103%.

The record behind these values is patent US9365533B2, “Coumarin derivative” (NIPPON ZOKI PHARMACEUTICAL CO., LTD., priority 2012, dated 2016).
